Experimental data published in patent US20230346820A1, “METHODS AND COMPOSITIONS FOR THE TREATMENT OF SARS-COV-2” (priority 2020, published 2023).
Where a name gives a salt, the structure may show the parent alone. Read-outs that look alike come from different tables or passages of the source.

How the values were obtained:
SARS-CoV-2 [1] = system: SARS-CoV-2
in vitro [2] = conditions: human
in vitro [3] = conditions: human; remark: listed apart in the source
Experimental: To assess cell viability, 2 μL of 50% Cell-Titer Glo (Promega No G7573) diluted in water was added to the cells and luminescence measured on an EnVision Plate Reader (Perkin Elmer).
Data analysis. […] Primary in vitro screen and the host cell cytotoxicity counter screen data were uploaded to Genedata Screener, Version 16.0.3-Standard. […] For the uninfected host cell cytotoxicity counter screens, 40 μM puromycin (Sigma) was used as the positive (inhibitory) control in HeLa-ACE2, HepG2 and HEK293T cells, and 30 μM puromycin (Sigma) was used as the positive (inhibitory) control for Calu-3 cells. For dose response experiments compounds were tested in technical triplicates on different assay plates and dose curves were fitted with the four parameter Hill Equation. Technical replicate data were analyzed using median condensing. Geometric means and geometric standard deviations are reported for compound activities (EC50s and CC50s) obtained in multiple independent biological experiments. […] Geometric means were calculated by computing the logarithm (base 10) of all values, calculating the mean of these logarithms, and taking the antilog of that mean. Geometric standard deviations were computed by taking the standard deviation of the log-transformed individual values and taking the antilog of that standard deviation. The geometric standard deviation is a unitless ratio and reported as ×÷ instead of +/−.

SARS-CoV-2 [4] = experiment: microbe, parasite or virus in culture; conditions: Severe acute respiratory syndrome coronavirus 2, Calu-3, 48 h, read-out: Calu-3 CoV-2 EC50 [μM]
SARS-CoV-2 [5] = conditions: for HeLa-ACE2 SI CC50/CoV-2 EC50: Table 4
HeLa-ACE2 cells = experiment: cells; format: cell-based, human; conditions: Homo sapiens, HeLa-ACE2, read-out: HeLa-ACE-2 EC50 [μM] (Geomeans, n ≥ 2)
SARS-CoV-2 [6] = experiment: microbe, parasite or virus in culture; conditions: Severe acute respiratory syndrome coronavirus 2, HeLa-ACE2, 24 h, read-out: CoV-2 EC50 [μM] (Geomeans, n ≥ 2)
[7] = HeLa-ACE2 Uninfected Tox CC50 [μM], Table 4, aggregated data, Geomean, n = 3
[8] = CC50 [μM] (Geomeans, n ≥ 2 except where indicated: *n = 1)

Row | SMILES | CC50 (in vitro [3]) | EC50 (SARS-CoV-2 [4]) | Calu3 SI CC50/CoV-2 EC50 (SARS-CoV-2 [1]; Table 4) | CC50 (in vitro [2]; [7]) | EC50 (HeLa-ACE2 cells) | HeLa-ACE2 CC50/CoV-2 EC50 (SARS-CoV-2 [5]) | CC50 (in vitro [2]; [8]) | EC50 (SARS-CoV-2 [6]) | also measured
1 | CCc1ccc(C2=CC(C)(C)Sc3ccc(C#Cc4ccc(C(=O)O)cc4)cc32)cc1 [AGN-194310] | > 29.9 µM | 0.597 µM | – | – | – | – | – | – | Calu3 SI CC50/CoV-2 EC50 (SARS-CoV-2 [1]): >50; CC50 (in vitro [2]; HeLa-ACE2 Uninfected Tox CC50 [μM]): > 39.8 µM
2 | CC/C(=C(/c1ccc(/C=C/C(=O)O)cc1)c1ccc2[nH]ncc2c1)c1ccc(F)cc1Cl [ARN-810] | 23.8 µM | 1.1 µM | 21.60 | 11 µM | – | – | – | – | –
3 | C=Cc1cc(C(=O)Nc2ccc(C(=N)N)cc2)c(-c2ccc(C(=O)NCC3CC3)nc2C(=O)O)cc1OC [Avoralstat] | > 29.9 µM | – | >77 | > 39.8 µM | – | – | – | – | activity in Calu-3 infection assay (SARS-CoV-2 [1]): active
4 | COC(=O)[C@]12CCC(C)(C)C[C@H]1[C@H]1C(=O)C=C3[C@@]4(C)C=C(C#N)C(=O)C(C)(C)[C@@H]4CC[C@@]3(C)[C@]1(C)CC2 [Bardoxolone Methyl] | 3.06 µM | – | 38.47 | 3.1 µM | – | – | – | – | HeLa-ACE2 SI CC50/CoV-2 EC50 (SARS-CoV-2 [5]): 5.73
5 | O=C(Nc1ccc(Cl)c(S(=O)(=O)N2CCNCC2)c1O)Nc1cccc(F)c1Cl [Elubrixitosylate] | > 29.6 µM | 6.91 µM | >4.28 | > 39.8 µM | – | – | – | – | HeLa-ACE2 SI CC50/CoV-2 EC50 (SARS-CoV-2 [5]): 4.35
6 | N#Cc1cccc(C(C(=O)NCC(c2ccccc2)c2ccccc2)N(CCc2c[nH]cn2)C(=O)c2ccccc2C(=O)c2ccccc2)c1 (centres unmarked) [GENZ-29155] | > 29.9 µM | > 4.66 µM | >6.41 | > 38.5 µM | – | – | – | – | HeLa-ACE2 SI CC50/CoV-2 EC50 (SARS-CoV-2 [5]): 4.01
7 | CSc1ccc(CN2CCCC(Nc3ccc4[nH]ncc4c3)C2)cc1 (centres unmarked) [INS-117548] | > 29.9 µM | > 3.55 µM | >8.42 | > 39.8 µM | – | – | – | – | HeLa-ACE2 SI CC50/CoV-2 EC50 (SARS-CoV-2 [5]): 4.15
8 | O[C@@H]1CO[C@H]2[C@@H]1OC[C@H]2Oc1nc2nc(-c3ccc(-c4ccccc4)cc3)c(Cl)cc2[nH]1 [MK-8722] | > 29.9 µM | 2.73 µM | >10 | 37.4 µM | – | – | – | – | –
9 | O=c1nc(NO)ccn1[C@@H]1O[C@H](CO)[C@@H](O)[C@H]1O [N-hydroxycytidine] | – | – | – | – | > 9.6 µM | >18.13 | > 37.5 µM | – | activity in HeLa-ACE2 infection assay (SARS-CoV-2 [5]): potent and selective; activity in Calu-3 infection assay (SARS-CoV-2 [1]): potent and selective
10 | C=C(C)[C@@H]1CC[C@]2(C(=O)OCC(N)(CO)CO)CC[C@]3(C)[C@H](CC[C@@H]4[C@@]5(C)CC[C@H](OC(C)=O)C(C)(C)[C@@H]5CC[C@]43C)[C@@H]12 [NVX-207] | – | – | – | – | 5.88 µM | 4.37 | 8.19 µM | 1.87 µM | –
11 | CC[C@@H](C(=O)O)[C@@H]1O[C@@H]([C@@H](C)[C@H](O)[C@H](C)C(=O)[C@H](CC)[C@H]2O[C@]3(C=C[C@@H](O)[C@]4(CC[C@@](C)([C@H]5CC[C@](O)(CC)[C@H](C)O5)O4)O3)[C@H](C)C[C@@H]2C)[C@@H](C)C[C@@H]1C [Narasin] | – | – | – | – | 5.99 µM | 2.31 | 3.47 µM | 1.5 µM | –
12 | CN1CCN(C2Cc3cc(Cl)ccc3Sc3ccccc32)CC1 (centres unmarked) [OCTOCLOTHEPIN analog] | – | – | – | – | > 8.73 µM | >11.42 | > 28.4 µM | 2.49 µM | –
13 | CC[C@@H]1/C=C/C=C/C[C@H](C)[C@@H](O)[C@](C)(O)C(=O)[C@H](C)[C@@H](O)[C@H](C)C(=O)[C@H](C)[C@@H](O)[C@H](C)/C=C/C(=O)O[C@H]2[C@@H](C)[C@@H](CC1)O[C@]1(O[C@H](C[C@H](C)O)[C@H](C)CC1=O)[C@@H]2C [Oligomycin B] | – | 0.005 µM | 4539.49 | – | – | – | – | – | CC50 at 48 h (in vitro [3]): 24.5 µM
14 | N=C(N)Nc1ccc(C(=O)Oc2ccc(S(N)(=O)=O)cc2)cc1 [Ono-3307] | > 29.9 µM | 1.6 µM | >16 | > 39.8 µM | – | – | – | – | –
15 | CC(C)(C)c1ccc(CSc2cnn(C(C)(C)C)c(=O)c2Cl)cc1 [PYRIDABEN] | 8.99 µM | 0.205 µM | 43.89 | > 39.8 µM | – | – | – | – | –
16 | CCOc1cc(C(C)(C)C)ccc1C1=N[C@@](C)(c2ccc(Cl)cc2)[C@@](C)(c2ccc(Cl)cc2)N1C(=O)N1CCN(CCCS(C)(=O)=O)CC1 [R-7112] | – | – | – | – | > 9.6 µM | >4.61 | > 14.9 µM | 3.23 µM | –
17 | Cc1cccc(C)c1NC(=O)CN1CCN([C@@H]2CCN(C(=O)c3cc(C(F)(F)F)cc(C(F)(F)F)c3)[C@@H](Cc3ccccc3)C2)CC1 [R-116301] | – | – | – | – | > 9.59 µM | 3.73 | 25.5 µM | 6.83 µM | –
18 | CN(C)CCC(Oc1ccc2c(c1)C(=O)CC(c1ccccc1)O2)c1ccccc1 (centres unmarked) [RFM-007-454-4] | – | – | – | – | > 9.59 µM | >6.13 | > 23.5 µM | 3.83 µM | –
19 | CNCc1ccc(OC)c([C@]2(N3CCC[C@H]3c3ncco3)C(=O)N(S(=O)(=O)c3ccc(OC)cc3)c3ccc(Cl)cc32)c1 [RFM-011-200-5] | – | – | – | – | 4.24 µM | >4.37 | > 8.46 µM | 1.93 µM | –

Row | SMILES | CC50 (in vitro [3]) | EC50 (SARS-CoV-2 [4]) | Calu3 SI CC50/CoV-2 EC50 (SARS-CoV-2 [1]; Table 4) | CC50 (in vitro [2]; [7]) | EC50 (HeLa-ACE2 cells) | HeLa-ACE2 CC50/CoV-2 EC50 (SARS-CoV-2 [5]) | CC50 (in vitro [2]; [8]) | EC50 (SARS-CoV-2 [6]) | also measured
20 | Cc1ccc(C(=O)Nc2cccc(C(F)(F)F)c2)cc1NC(=O)c1cccc2c(N)nccc12 [RFM-011-761-3] | – | – | – | – | > 9.06 µM | >3.37 | > 21.2 µM | 6.31 µM | –
21 | COc1ccc(C2(c3ccccc3)NC(=O)N(CCCN3CCC(c4ccccc4)CC3)C2=O)cc1 (centres unmarked) [ROPITOIN] | – | – | – | – | > 9.59 µM | 5.28 | 21.5 µM | 4.08 µM | –
22 | CC(=O)N1C[C@H](O)C[C@H]1C(=O)N[C@@H](CCCNC(=N)N)C(=O)c1nc2ccccc2s1 [RWJ-56423] | > 29.9 µM | 1.23 µM | >24 | > 39.8 µM | – | – | – | – | –
23 | Cc1cn2nc(-c3cc(=O)n4cc(N5CCNC6(CC6)C5)ccc4n3)cc(C)c2n1 [Risdiplam] | – | – | – | – | > 7.05 µM | 2.53 | > 17.8 µM | > 7.05 µM | –
24 | CCOC(=O)/C=C/[C@H](C[C@@H]1CCNC1=O)NC(=O)[C@@H](CC(=O)[C@@H](NC(=O)c1cc(C)on1)C(C)C)Cc1ccc(F)cc1 [Rupinavir] | – | – | – | – | > 9.59 µM | 4.15 | > 39.8 µM | > 9.59 µM | –
25 | CC(CN1CCN(c2cccc3c2CCCN3)CC1)NC(=O)c1ccc(F)cc1 (centres unmarked) [SLV-307] | – | – | – | – | > 6.7 µM | 4.15 | > 39.8 µM | > 9.59 µM | –
26 | CN(C)CCC1CCc2cc(OCc3ccc(-c4ccccc4)cc3)ccc2C1 (centres unmarked) [TAK-070] | – | – | – | – | > 5.5 µM | 7.19 | 10.1 µM | 1.41 µM | –
27 | COc1cc(CC2c3cc(OC)c(OC)cc3CCN2C)c(Oc2cc3c(cc2OC)-c2c(O)c(OC)cc4c2C(C3)N(C)CC4)cc1OC (centres unmarked) [Thalicarpine Analog] | – | – | – | – | > 8.78 µM | 26.77 | > 21.5 µM | > 0.8 µM | –
28 | CN1CCN(CCCN2c3ccccc3Sc3ccc(S(=O)(=O)N(C)C)cc32)CC1 [Thioproperazine] | – | – | – | – | > 9.59 µM | 7.29 | 22.1 µM | 3.03 µM | –
29 | NC(N)=Nc1ncc(Cl)c2ccc(-c3cccc(C(=O)O)c3)cc12 [UK-356202] | > 29.9 µM | 1.92 µM | >15 | > 39.8 µM | – | – | – | – | –
30 | COC(=O)C1=C(C)NC(C)=C(C(=O)OCCCCNC[C@@H](O)COc2ccccc2)C1c1cccc([N+](=O)[O-])c1 (some centres unmarked) [YM 430] | – | – | – | – | > 7.8 µM | 7.01 | > 20.2 µM | 2.88 µM | –
31 | CC(=N)N1CCC(Oc2ccc(N(Cc3ccc4ccc(C(=N)N)cc4c3)S(=O)(=O)CC(=O)O)cc2)CC1 [YM 60828] | > 29.9 µM | 3.38 µM | >9 | > 39.8 µM | – | – | – | – | –
32 | C=CCc1c(OCCCNCc2ccccc2)ccc2c1[nH]c1ccccc12 [YM-75440] | – | – | – | – | > 6.58 µM | 4.89 | 8.01 µM | 1.64 µM | –
33 | OCCN1CCN(CC/C=C2\c3ccccc3Sc3ccc(Cl)cc32)CC1 [ZUCLPEN THIXL] | – | – | – | – | > 9.59 µM | >8.08 | > 16.8 µM | 2.08 µM | –
34 | C[C@@H](n1cnc2cc(Cl)ccc2c1=O)[C@](O)(Cn1cncn1)c1ccc(F)cc1F [albaconazole] | – | – | – | – | > 9.59 µM | 6.6 | > 39.8 µM | > 6.04 µM | –
35 | COCc1c(C(C)C)nc(C(C)C)c(/C=C/[C@@H](O)C[C@@H](O)CC(=O)O)c1-c1ccc(F)cc1 [cerivastatin (sodium salt)] | > 29.9 µM | 0.348 µM | >85 | 0.308 µM | – | – | – | – | –
36 | COc1ccc2nc3cc(Cl)ccc3c(Nc3cc(CN4CCCC4)c(O)c(CN4CCCC4)c3)c2n1 [pyronaridine] | – | – | – | – | 3.41 µM | >4.86 | > 7.39 µM | 1.52 µM | –
37 | O=C(c1ccc(OCCN2CCCCC2)cc1)c1c(-c2ccc(O)cc2)sc2cc(O)ccc12 [raloxifene hydrochloride] | – | – | – | – | > 8.71 µM | >2.97 | > 13.3 µM | 4.48 µM | –
38 | COc1cc2c(Nc3ccc(Cl)c(Cl)c3F)ncnc2cc1OC[C@@H]1C[C@@H]2CN(C)C[C@@H]2C1 [tesevatinib] | – | – | – | – | > 8.16 µM | >8.46 | > 20.6 µM | 2.44 µM | –
